Data reported in patent US10035766B2, “Compositions for preventing and/or treating lysosomal storage disorders” (Amicus Therapeutics, Inc., priority 2009, dated 2018).
Where a name gives a salt, the structure may show the parent alone. Read-outs that look alike come from different tables or passages of the source.

Assays:
GCase [1] = target: T1, GCase (Homo sapiens, UniProt P04062); assay: GCase activity enhancement (EC50, Emax) of Table 2B; format: cell-based; conditions: for GCase activity enhancement compared to reference compound IFG-tartrate: same maximum level as IFG-tartrate at much lower concentration
T1 sequence (P04062 40-536): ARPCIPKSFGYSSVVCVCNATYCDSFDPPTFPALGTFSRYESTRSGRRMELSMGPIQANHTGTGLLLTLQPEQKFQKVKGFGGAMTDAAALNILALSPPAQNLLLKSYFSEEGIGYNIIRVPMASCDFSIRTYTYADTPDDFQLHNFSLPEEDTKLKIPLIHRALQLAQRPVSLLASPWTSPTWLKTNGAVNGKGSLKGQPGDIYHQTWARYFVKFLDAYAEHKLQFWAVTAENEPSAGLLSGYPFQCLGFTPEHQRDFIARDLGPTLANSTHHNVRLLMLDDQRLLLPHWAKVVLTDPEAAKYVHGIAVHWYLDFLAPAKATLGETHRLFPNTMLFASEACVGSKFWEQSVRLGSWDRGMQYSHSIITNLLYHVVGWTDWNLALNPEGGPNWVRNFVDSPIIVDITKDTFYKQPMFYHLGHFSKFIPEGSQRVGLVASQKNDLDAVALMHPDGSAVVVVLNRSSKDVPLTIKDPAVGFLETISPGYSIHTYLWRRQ

[2] = GCase enhancement in brain and spleen after oral dosing over 2 weeks; format: in vivo, mice; conditions: male, C57BL/6, mouse, brain homogenate as diluted in the GCase assay, po, brain, read-out: Compound concentration in GCase assay
Description: (§1) The ability of orally administered test compounds ((3R,4R,5S)-5-(difluoromethyl)piperidine-3,4-diol, (3R,4R,5S)-5-(1-fluoroethyl)piperidine-3,4-diol, (3R,4R,5S)-5-((R)-1-fluoropropyl)piperidine-3,4-diol hydrochloride, or (3R,4R,5S)-5-benzylpiperidine-3,4-diol) to elevate GCase levels was assessed in mice. For this purpose, 8-week old wild-type male mice (C57BL/6) were administered a single p.o. (gavage) dose of a compound of the present invention (i.e., (3R,4R,5S)-5-(difluoromethyl)piperidine-3,4-diol, (3R,4R,5S)-5-(1-fluoroethyl)piperidine-3,4-diol, (3R,4R,5S)-5-((R)-1-fluoropropyl)piperidine-3,4-diol hydrochloride, or (3R,4R,5S)-5-benzylpiperidine-3,4-diol). The dosing solutions were prepared in water. Compounds were administered over 2 weeks as follows: week 1, Mon-Fri (On), Sat-Sun (Off); week 2, Mon-Thu (On); necropsy on Friday. Thus, a total of 9 doses (dosing solutions prepared fresh every day) were given to each mouse, with a 24-hour washout between the last dose and necropsy.
(§2) Plasma was collected by spinning blood at 2700 g for 10 minutes at 4° C. Liver, spleen, lung, and brain tissues were removed, washed in cold PBS, blotted dry, flash frozen on dry ice, and stored at −80° C. until analysis. GCase levels were measured by homogenizing approximately 50 mg tissue in 500 μL McIlvane (MI) buffer (100 mM sodium citrate, 200 mM sodium phosphate dibasic, 0.25% sodium taurocholate, and 0.1% Triton X-100, pH 5.2) at pH 5.2 for 3-5 seconds on ice with a micro homogenizer. Homogenates were then incubated at room temperature without and with 2.5 mM conduritol-B-epoxide (CBE) for 30 min. Finally, 3.7 mM 4-methylumbeliferryl-β-glucoside (4-MUG) substrate was added and incubated at 37° C. for 60 min. […] Fluorescence was measured on a plate reader for 1 sec/well using 355 nm excitation and 460 nm emission. Total protein was determined in lysates using the MicroBCA kit according to the manufacturer's instructions. A 4-methylumbelliferone (4-MU) standard curve ranging from 1.0 nM to 50 μM was run in parallel for conversion of raw fluorescence data to absolute GCase activity (in the presence and absence of CBE) and expressed as nanomoles of 4-MU released per milligram of protein per hour (nmol/mg protein/hr). GCase levels and protein levels were calculated using Microsoft Excel (Redmond, Wash.) and GraphPad Prism version 4.02.

GCase [3] = target: T2, GCase (Mus musculus, UniProt P17439); assay: as above; format: in vivo, mice; design: from tissue; host or cells: brain and spleen of wild-type C57BL/6 mice; conditions: for GCase increase (fold): 9 doses, 24-hour washout; for GCase enhancement in brain and spleen: mice, p.o.
T2 sequence (P17439 20-515): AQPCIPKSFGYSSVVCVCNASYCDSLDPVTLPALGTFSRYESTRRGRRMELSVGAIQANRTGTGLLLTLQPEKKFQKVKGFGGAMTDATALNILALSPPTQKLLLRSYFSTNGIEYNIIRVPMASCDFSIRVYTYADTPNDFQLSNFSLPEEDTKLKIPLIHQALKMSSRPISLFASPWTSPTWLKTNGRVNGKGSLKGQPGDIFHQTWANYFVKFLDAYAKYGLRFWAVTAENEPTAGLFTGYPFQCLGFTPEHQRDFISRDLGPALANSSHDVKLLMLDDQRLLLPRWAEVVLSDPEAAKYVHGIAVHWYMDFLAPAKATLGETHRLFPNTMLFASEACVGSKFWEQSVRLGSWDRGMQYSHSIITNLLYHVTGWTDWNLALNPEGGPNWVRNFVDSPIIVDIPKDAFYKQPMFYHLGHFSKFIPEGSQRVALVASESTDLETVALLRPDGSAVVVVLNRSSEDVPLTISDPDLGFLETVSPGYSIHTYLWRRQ
Description: as §1, §2

[4] = brain, 10 mg/kg FBE p.o., (1) BLQ <[…], (2) BLQ <2.2 nmol/kg
[5] = spleen, 10 mg/kg FBE p.o., (1) BLQ <6.8 nmol/kg, (2) BLQ <7.9 nmol/kg
[6] = spleen, 10 mg/kg FBE p.o., in µM
[7] = spleen, 100 mg/kg FBE p.o., in µM

Emax (GCase [1]) [%] | Compound concentration in GCase assay (μM) (GCase [3]; brain, 10 mg/kg FBE p.o.) | GCase increase (fold) (GCase [3]; brain, 10 mg/kg FBE p.o.) | GCase increase (fold) (GCase [3]; brain, 100 mg/kg FBE p.o.) | GCase increase (fold) (GCase [3]; spleen, 10 mg/kg FBE p.o.) | GCase increase (fold) (GCase [3]; spleen, 100 mg/kg FBE p.o.) | Compound concentration in GCase assay (GCase [3]; spleen, 10 mg/kg FBE p.o.) | SMILES | GCase activity enhancement compared to reference compound IFG-tartrate (GCase [1]) | concentration at 24 h ([2]; 100 mg/kg, 100 mg/kg FBE p.o.) [nM] | Compound concentration in tissue 2.2 nmol/kg (GCase [3]; [4]) | Compound concentration in tissue 2.2 nmol/kg (GCase [3]; brain, 100 mg/kg FBE p.o.) [nmol/kg] | Compound concentration in tissue (GCase [3]; [5]) [nmol/kg] | Compound concentration in GCase assay (GCase [3]; [6]) | Compound concentration in tissue (GCase [3]; spleen, 100 mg/kg FBE p.o.) [nmol/kg] | Compound concentration in GCase assay (GCase [3]; [7]) | concentration at 24 h ([2]; 10 mg/kg, 10 mg/kg FBE p.o.) [nM] | GCase enhancement in brain and spleen (GCase [3])
84 ± 4.1 | BLQ | 0.9 | 1.1 | 0.7 | 0.7 | – | CC[C@@H](F)[C@H]1CNC[C@@H](O)[C@@H]1O.Cl [(3R,4R,5S)-5-((R)-1-fluoropropyl)-piperidine-3,4-diol hydrochloride] | concentration-dependent increase in GCase activity | 0.1 | BLQ(2) | 38 | 21 | 0.0001 | 60 | 0.0002 | – | –
– | – | 1.5 | – | – | – | BLQ | CC(F)[C@H]1CNC[C@@H](O)[C@@H]1O (single isomer, unassigned) | concentration-dependent increase in GCase activity | – | – | – | – | – | – | – | 0.2 | significant GCase enhancement in brain and spleen
98 ± 4.5 | – | 1.2 | 1.4 | 1.0 | 1.2 | – | O[C@@H]1[C@@H](Cc2ccccc2)CNC[C@H]1O [(3R,4R,5S)-5-benzyl-piperidine-3,4-diol] | concentration-dependent increase in GCase activity | – | – | – | – | – | – | – | – | significant GCase enhancement in brain and spleen

SMILES | Emax (GCase [1]) [%] | Compound concentration in GCase assay (μM) (GCase [3]; brain, 10 mg/kg FBE p.o.) | GCase increase (fold) (GCase [3]; brain, 10 mg/kg FBE p.o.) | GCase increase (fold) (GCase [3]; brain, 100 mg/kg FBE p.o.) | GCase increase (fold) (GCase [3]; spleen, 10 mg/kg FBE p.o.) | GCase increase (fold) (GCase [3]; spleen, 100 mg/kg FBE p.o.) | Compound concentration in GCase assay (GCase [3]; spleen, 10 mg/kg FBE p.o.) | GCase activity enhancement compared to reference compound IFG-tartrate (GCase [1]) | concentration at 24 h ([2]; 100 mg/kg, 100 mg/kg FBE p.o.) [nM] | Compound concentration in tissue 2.2 nmol/kg (GCase [3]; [4]) | Compound concentration in tissue 2.2 nmol/kg (GCase [3]; brain, 100 mg/kg FBE p.o.) [nmol/kg] | Compound concentration in tissue (GCase [3]; [5]) [nmol/kg] | Compound concentration in GCase assay (GCase [3]; [6]) | Compound concentration in tissue (GCase [3]; spleen, 100 mg/kg FBE p.o.) [nmol/kg] | Compound concentration in GCase assay (GCase [3]; [7]) | concentration at 24 h ([2]; 10 mg/kg, 10 mg/kg FBE p.o.) [nM] | GCase enhancement in brain and spleen (GCase [3])
O[C@H]1[C@H](O)CNC[C@@H]1C(F)F [Compound 6, (3R,4R,5S)-5-(Difluoromethyl)piperdine 3,4-diol Hydrochloride] | 106 ± 8.7 | – | – | – | – | – | – | concentration-dependent increase in GCase activity | 1 | 55 nmol/kg | 301 | 100 | 0.0003 | 435 | 0.0015 | 0.2 | significant GCase enhancement in brain and spleen
